The nature of data set [1]: Metabolic stability in rat liver microsomes assessed as intrinsic clearance. The format is ADME, Microsome. The conditions noted are these: read-out: CLH. A general note: Liver microsomes are vesicles of endoplasmic reticulum, rich in cytochrome P450 enzymes.
The nature of data set [2]: Unbound brain-to-plasma concentration ratio in iv dosed rat measured at 4 to 24 hrs by LC-MS/MS analysis. The note with it: brain and plasma, time 4-24 hrs, read-out: K(p,uu,brain). It counts as ADME, organism-based.
The test system of data set [3] is Mus musculus. In words: Inhibition of LPS-induced IL-1beta production in po dosed female C57BL/6 mouse assessed as reduction in IL-1beta level in brain administered via oral gavage for 60 mins followed by LPS stimulation at 0.6 ug, icv measured after 120 mins by ELISA. The format is functional, organism-based. The note with it: dose 10-30 mg/kg, time 180.0 min. A general note: In an ELISA, binding on a coated surface is turned into a signal by an enzyme label.

Data set [4] relates to Mus musculus. Put plainly: Inhibition of IL-6 production in male C57BL/6 mouse model of distal hypoxic-middle cerebral artery occlusion stroke assessed as reduction in IL-6 level in brain at 10 to 30 mg/kg, po qd administered via oral gavage for 3 to 7 days starting from 1 hr 15 mins post cauterization by ELISA. The format is functional, organism-based. The note with it: dose 10-30 mg/kg, time 3-7 day.

Data set [5] is described as follows: Metabolic stability in human hepatocytes assessed as intrinsic clearance. The conditions noted are these: read-out: CLH. The format is ADME, cell-based, Hepatocyte.
Data set [6] concerns Mus musculus. Put plainly: Inhibition of IL-1beta production in male C57BL/6 mouse model of distal hypoxic-middle cerebral artery occlusion stroke assessed as reduction in IL-1beta level in brain at 10 to 30 mg/kg, po qd administered via oral gavage for 3 to 7 days starting from 1 hr 15 mins post cauterization by ELISA. The conditions noted are these: dose 10-30 mg/kg, time 3-7 day. The format is functional, organism-based.

The target in data set [7] is T1, Interleukin-1 receptor-associated kinase 4 (Homo sapiens, UniProt Q9NWZ3).
T1 sequence (Q9NWZ3 whole entry): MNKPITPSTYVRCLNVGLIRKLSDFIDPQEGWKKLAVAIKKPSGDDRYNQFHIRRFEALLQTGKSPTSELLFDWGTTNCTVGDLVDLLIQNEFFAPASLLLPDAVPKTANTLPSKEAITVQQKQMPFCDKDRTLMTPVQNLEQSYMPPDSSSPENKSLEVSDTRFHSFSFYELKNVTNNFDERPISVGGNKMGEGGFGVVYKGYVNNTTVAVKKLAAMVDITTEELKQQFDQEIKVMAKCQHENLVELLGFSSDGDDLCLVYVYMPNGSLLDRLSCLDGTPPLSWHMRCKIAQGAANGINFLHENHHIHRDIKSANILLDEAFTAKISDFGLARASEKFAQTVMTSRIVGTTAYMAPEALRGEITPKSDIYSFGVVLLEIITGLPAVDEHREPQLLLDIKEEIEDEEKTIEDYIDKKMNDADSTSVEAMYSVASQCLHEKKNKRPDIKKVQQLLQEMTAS

The nature of data set [8]: Metabolic stability in human liver microsomes assessed as intrinsic clearance. It counts as ADME, Microsome. The conditions noted are these: read-out: CLH.
Data set [9] in a line: Metabolic stability in rat hepatocytes assessed as intrinsic clearance. It counts as ADME, cell-based, Hepatocyte. The note with it: read-out: CLH.
Data set [10] concerns Mus musculus. Put plainly: Inhibition of LPS-induced IL-6 production in po dosed female C57BL/6 mouse assessed as reduction in IL-6 level in brain administered via oral gavage for 60 mins followed by LPS stimulation at 0.6 ug, icv measured after 120 mins by ELISA. The format is functional, organism-based. The conditions noted are these: dose 10-30 mg/kg, time 180.0 min.
Data set [11] relates to Mus musculus. Put plainly: Inhibition of TNF-alpha production in male C57BL/6 mouse model of distal hypoxic-middle cerebral artery occlusion stroke assessed as reduction in TNF-alpha level in CNS at 10 to 30 mg/kg, po qd administered via oral gavage for 3 to 7 days starting from 1 hr 15 mins post cauterization by ELISA. It counts as functional, organism-based. The conditions noted are these: dose 10-30 mg/kg, time 3-7 day.

Data set [12] concerns Mus musculus. Put plainly: Inhibition of LPS-induced TNF-alpha production in po dosed female C57BL/6 mouse assessed as reduction in TNF-alpha level in plasma administered via oral gavage for 60 mins followed by LPS stimulation at 0.5 mg/kg, ip measured after 90 mins by ELISA. The format is functional, organism-based.
Data set [13] can be described thus: Unbound clearance in rat at 1 mg/kg, iv by LC-MS/MS analysis. The format is ADME, organism-based. The conditions noted are these: in vivo.
Data set [14] is described as follows: Free drug level in male C57BL/6 mouse brain at 30 mg/kg, po qd measured on 3 to 7 days. It counts as ADME, organism-based. The note with it: in vivo, time 3-7 day.
Data set [15] concerns the target Voltage-gated inwardly rectifying potassium channel KCNH2 (Homo sapiens, UniProt Q12809). In words: Inhibition of hERG by patch clamp method. The format is toxicity. Background: hERG is a cardiac potassium channel; its block is linked to QT prolongation.
Data set [16] concerns Mus musculus. Put plainly: Inhibition of LPS-induced IL-6 production in po dosed female C57BL/6 mouse assessed as reduction in IL-6 level in plasma administered via oral gavage for 60 mins followed by LPS stimulation at 0.5 mg/kg, ip measured after 90 mins by ELISA. The format is functional, organism-based.
Data set [17] in a line: Inhibition of […] induced IL-1beta production in human whole blood preincubated for 1 hr followed by R848 stimulation and measured after 4 hrs by MSD assay. It counts as functional, tissue-based.
For data set [18], the system named is Mus musculus. In words: Inhibition of IL-6 production in male C57BL/6 mouse model of distal hypoxic-middle cerebral artery occlusion stroke assessed as reduction in IL-6 level in CNS at 10 to 30 mg/kg, po qd administered via oral gavage for 3 days starting from 1 hr 15 mins post cauterization by ELISA. The note with it: dose 10-30 mg/kg, time 3.0 day. The format is functional, organism-based.

Data set [19] is described as follows: Clearance in rat at 1 mg/kg, iv by LC-MS/MS analysis. The conditions noted are these: in vivo. The format is ADME, organism-based.
Data set [20] is described as follows: Lipophilicity, logD of compound in n-octanol and aqueous buffer at pH 7.4 by RP-HPLC method. It counts as physicochemical.
In data set [21] the test system is Mus musculus. In words: Inhibition of LPS-induced TNF-alpha production in po dosed female C57BL/6 mouse assessed as reduction in TNF-alpha level in brain administered via oral gavage for 60 mins followed by LPS stimulation at 0.6 ug, icv measured after 120 mins by ELISA. It counts as functional, organism-based. The note with it: dose 10-30 mg/kg, time 180.0 min.

For data set [22], the system named is Mus musculus. Put plainly: Inhibition of LPS-induced IL-1beta production in po dosed female C57BL/6 mouse assessed as reduction in IL-1beta level in plasma administered via oral gavage for 60 mins followed by LPS stimulation at 0.5 mg/kg, ip measured after 90 mins by ELISA. It counts as functional, organism-based.
The subject of data set [23] is Mus musculus. In words: Inhibition of TNF-alpha production in male C57BL/6 mouse model of distal hypoxic-middle cerebral artery occlusion stroke assessed as reduction in TNF-alpha level in brain at 10 to 30 mg/kg, po qd administered via oral gavage for 3 days starting from 1 hr 15 mins post cauterization by ELISA. The format is functional, organism-based. The conditions noted are these: dose 10-30 mg/kg, time 3.0 day.

Calls of active or inactive are those of the source. The calls are words filed in the database; no cut-off is given here.

Chain of Voltage-gated inwardly rectifying potassium channel KCNH2 (Q12809 whole entry): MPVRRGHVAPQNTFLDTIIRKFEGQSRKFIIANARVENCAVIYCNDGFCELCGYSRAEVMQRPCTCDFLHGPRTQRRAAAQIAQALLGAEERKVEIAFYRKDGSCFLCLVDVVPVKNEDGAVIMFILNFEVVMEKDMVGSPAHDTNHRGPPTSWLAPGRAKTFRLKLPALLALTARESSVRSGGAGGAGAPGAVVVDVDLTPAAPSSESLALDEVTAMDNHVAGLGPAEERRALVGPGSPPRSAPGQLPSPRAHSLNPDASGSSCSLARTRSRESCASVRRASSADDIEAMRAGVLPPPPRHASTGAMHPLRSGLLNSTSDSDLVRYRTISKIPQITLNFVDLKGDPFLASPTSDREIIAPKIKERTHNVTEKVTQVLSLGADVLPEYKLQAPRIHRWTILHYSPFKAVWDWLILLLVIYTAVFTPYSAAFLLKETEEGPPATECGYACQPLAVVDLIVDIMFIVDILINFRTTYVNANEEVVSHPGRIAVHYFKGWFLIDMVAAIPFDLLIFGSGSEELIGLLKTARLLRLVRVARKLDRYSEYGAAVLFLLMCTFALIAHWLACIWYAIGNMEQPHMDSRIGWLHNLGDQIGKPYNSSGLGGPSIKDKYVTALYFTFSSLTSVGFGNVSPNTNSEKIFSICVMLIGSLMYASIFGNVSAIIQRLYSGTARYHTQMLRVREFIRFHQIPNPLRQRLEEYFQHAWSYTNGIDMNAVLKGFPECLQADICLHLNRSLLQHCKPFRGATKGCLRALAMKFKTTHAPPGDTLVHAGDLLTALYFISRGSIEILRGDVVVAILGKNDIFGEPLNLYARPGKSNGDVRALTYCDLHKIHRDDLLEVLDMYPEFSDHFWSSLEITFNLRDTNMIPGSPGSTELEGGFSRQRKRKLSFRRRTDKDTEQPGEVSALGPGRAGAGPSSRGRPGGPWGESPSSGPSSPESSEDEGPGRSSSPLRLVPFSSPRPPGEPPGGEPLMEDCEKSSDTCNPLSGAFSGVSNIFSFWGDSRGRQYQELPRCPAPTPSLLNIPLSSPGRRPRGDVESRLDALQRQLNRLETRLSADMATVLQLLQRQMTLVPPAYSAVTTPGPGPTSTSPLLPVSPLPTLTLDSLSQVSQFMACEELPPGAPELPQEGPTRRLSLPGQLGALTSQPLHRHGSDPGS

By IC50 is commonly meant the point on the concentration scale where inhibition reaches its midpoint. A low value points to greater potency. The clearance is a measure of how efficiently the substance is removed, as volume per time. Low readings indicate a low capacity for elimination, high ones a high capacity for elimination. What is called logD is lipophilicity at a set pH, counting ionised and neutral species. High values mean higher lipophilicity, low ones lower lipophilicity. As for `CC(C)Oc1cc2nc(C34COC(C)(C3)C4)cn2cc1C(=O)Nc1cccc(C(F)F)n1`, the CLint scaled in data set [1] was 11 mL/min/kg; in data set [5], 5.3 mL/min/kg; in [8], under 5 mL/min/kg; in data set [9], under 3 mL/min/kg. In addition, in [2], the Kp uu stood at 0.4. For the same compound, the inhibition entry with Mus musculus [3], with Mus musculus [10], in the data set with Mus musculus [12], in the data set on Mus musculus [16], in the data set with Mus musculus [21] and in the data set with Mus musculus [22] was “Dose-Dependent Effect” each time. Further, the inhibition result with Mus musculus [4] and in the data set with Mus musculus [6] was “Active” each time. For the same compound, the IC50 in data set [7] was 0.17 nM; in [15], 2200 nM; in data set [17] (Homo sapiens, Blood), 306 nM. Also, the inhibition entry with Mus musculus [11], in the data set with Mus musculus [18] and with Mus musculus [23] was “inactive” in each case. In [13], this compound showed a CL free of 563 mL/min/kg. Moreover, in data set [14], the “Drug uptake(free)” value is listed as 100 nM. Besides, the fIC50 in [17] (time 5 hrs) stood at 6 nM. The clearance in [19] came out at 15 mL/min/kg. This compound also showed a logD in data set [20] of 4.4.

Source of the values: ChEMBL document CHEMBL5518220, “The Discovery of 7-Isopropoxy-2-(1-methyl-2-oxabicyclo[2.1.1]hexan-4-yl)-N-(6-methylpyrazolo[1,5-a]pyrimidin-3-yl)imidazo[1,2-a]pyrimidine-6-carboxamide (BIO-7488), a Potent, Selective, and CNS-Penetrant IRAK4 Inhibitor for the Treatment of Ischemic Stroke” (J Med Chem, 2024).
